Data from patent US11753395B2 (Kinnate Biopharma Inc., priority 2021, dated 2023).
pEC50, pIC50: −log10 of the molar value.

How the values were obtained:
MET = biological target: T1, MET (Homo sapiens, UniProt P08581); assay: MET Mobility Shift Assay; details: biochemical assay IC50; 100 μM ATP, 60 minute kinase reaction
T1 construct: purchased Carna Biosciences 08-151
Description: (§1) Small molecule inhibition of MET kinase activity was evaluated using a fluorescence-based microfluidic mobility shift assay. MET catalyzes the production of ADP from ATP during phosphoryl transfer to the substrate peptide, FLPeptide30 (5-FAM-KKKKEEIYFFF-CONH2) (Perkin Elmer, 760430). MET enzme (Carna Biosciences, 08-151) at 0.625 nM was prepared with 10 mM MgCl2 and 1.5 μM substrate peptide in a buffer containing 50 mM HEPES, 1 mM EGTA, 0.01% Brij-35, 0.05% BSA, and 2 mM DTT and pre-incubated at room temperature for 30 min prior to the start of the reaction. 100 μM ATP was added to start the reaction. The mobility shift assay electrophoretically separates the fluorescently labeled peptides (substrate and phosphorylated product) following the 60 minute kinase reaction. The reaction was terminated by addition of 0.5 M EDTA. Both substrate and product were measured and the ratio of these values used to generate % conversion of substrate to product by the LabChip EZ reader (Perkin Elmer). ICso values were calculated using the inhibition of conversion ratio using Dotmatics Knowledge Solutions Studies curve fitting environment (Dotmatics, Bishops Stortford, UK, CM23) and are presented in Table 2.

MET D1228N = biological target: T2, MET D1228N (Homo sapiens, UniProt P08581, D1228N); assay: MET D1228N Mobility Shift Assay; details: biochemical assay IC50; 100 μM ATP, 60 minute kinase reaction
T2 construct: purchased Signalchem M52-12IG
Description: as §1, with “MET D1228N” for “MET”, “a fluorescence -based” for “a fluorescence-based”, “FLPeptide30 (5-FAM-KKKKEEIYFFF -CONH2)” for “FLPeptide30 (5-FAM-KKKKEEIYFFF-CONH2)”, “MET D1228N enzyme (Signalchem, M52-12IG)” for “MET enzme (Carna Biosciences, 08-151)”, “at 0.313” for “at 0.625”

Ba/F3-TPR-MET cells = biological target: T3, Ba/F3-TPR-MET cells (Homo sapiens, UniProt P08581); assay: CellTiter-Glo Cell Viability Assay, Ba/F3-TPR-MET; assay type: cell-based; details: 72 hours
T3 construct: fused on or other part: P12270 (Nucleoprotein TPR)
Description: (§2) Ba/F3-TPR-MET and Ba/F3-TPR-MET-D1228N cells were seeded at 3000 cells per well in a 96 well plate in 90 μL growth media and allowed to incubate overnight at 37° C. with 5% CO2. The following day, compounds were serially diluted from a 10 mM top dose for a 9-point 3-fold dilution curve in DMSO. Following a 100-fold dilution in growth media, a further 10-fold dilution was made into the cell plate for a final volume of 100 μL and 0.1% DMSO. Compounds and cells were incubated together for 72 hours at 37° C. with 5% CO2. The CellTiter-Glo® 2.0 Assay determines the number of viable cells in culture by quantifying ATP, which indicates the presence of metabolically active cells. Luminescence readout is directly proportional to the number of viable cells in culture. CellTiter-Glo reagent (Promega, G9243) and cell plates were allowed to equilibrate to room temperature for at least 15 min, then 100 μL of CellTiter-Glo was added to each well for a 1:1 ratio of reagent to media. Samples were placed on a shaker for 2 min prior to a 30 min incubation at room temperature protected from light. Luminescence was read on a Perkin Elmer Envision plate reader 2105 and used to calculate ICso values within the Dotmatics Knowledge Solutions Studies curve fitting environment (Dotmatics, Bishops Stortford, UK, CM23) and are presented in Table 2.

[1] = biological target: T4, Ba/F3-TPR-MET-D1228N cells (Homo sapiens, UniProt P08581, D1228N, cells depend on it); assay: CellTiter-Glo Cell Viability Assay, Ba/F3-TPR-MET-D1228N; assay type: cell-based; details: 72 hours
T4 construct: fused on or other part: P12270 (Nucleoprotein TPR)
Description: as §2

T1 sequence (P08581 25-1390): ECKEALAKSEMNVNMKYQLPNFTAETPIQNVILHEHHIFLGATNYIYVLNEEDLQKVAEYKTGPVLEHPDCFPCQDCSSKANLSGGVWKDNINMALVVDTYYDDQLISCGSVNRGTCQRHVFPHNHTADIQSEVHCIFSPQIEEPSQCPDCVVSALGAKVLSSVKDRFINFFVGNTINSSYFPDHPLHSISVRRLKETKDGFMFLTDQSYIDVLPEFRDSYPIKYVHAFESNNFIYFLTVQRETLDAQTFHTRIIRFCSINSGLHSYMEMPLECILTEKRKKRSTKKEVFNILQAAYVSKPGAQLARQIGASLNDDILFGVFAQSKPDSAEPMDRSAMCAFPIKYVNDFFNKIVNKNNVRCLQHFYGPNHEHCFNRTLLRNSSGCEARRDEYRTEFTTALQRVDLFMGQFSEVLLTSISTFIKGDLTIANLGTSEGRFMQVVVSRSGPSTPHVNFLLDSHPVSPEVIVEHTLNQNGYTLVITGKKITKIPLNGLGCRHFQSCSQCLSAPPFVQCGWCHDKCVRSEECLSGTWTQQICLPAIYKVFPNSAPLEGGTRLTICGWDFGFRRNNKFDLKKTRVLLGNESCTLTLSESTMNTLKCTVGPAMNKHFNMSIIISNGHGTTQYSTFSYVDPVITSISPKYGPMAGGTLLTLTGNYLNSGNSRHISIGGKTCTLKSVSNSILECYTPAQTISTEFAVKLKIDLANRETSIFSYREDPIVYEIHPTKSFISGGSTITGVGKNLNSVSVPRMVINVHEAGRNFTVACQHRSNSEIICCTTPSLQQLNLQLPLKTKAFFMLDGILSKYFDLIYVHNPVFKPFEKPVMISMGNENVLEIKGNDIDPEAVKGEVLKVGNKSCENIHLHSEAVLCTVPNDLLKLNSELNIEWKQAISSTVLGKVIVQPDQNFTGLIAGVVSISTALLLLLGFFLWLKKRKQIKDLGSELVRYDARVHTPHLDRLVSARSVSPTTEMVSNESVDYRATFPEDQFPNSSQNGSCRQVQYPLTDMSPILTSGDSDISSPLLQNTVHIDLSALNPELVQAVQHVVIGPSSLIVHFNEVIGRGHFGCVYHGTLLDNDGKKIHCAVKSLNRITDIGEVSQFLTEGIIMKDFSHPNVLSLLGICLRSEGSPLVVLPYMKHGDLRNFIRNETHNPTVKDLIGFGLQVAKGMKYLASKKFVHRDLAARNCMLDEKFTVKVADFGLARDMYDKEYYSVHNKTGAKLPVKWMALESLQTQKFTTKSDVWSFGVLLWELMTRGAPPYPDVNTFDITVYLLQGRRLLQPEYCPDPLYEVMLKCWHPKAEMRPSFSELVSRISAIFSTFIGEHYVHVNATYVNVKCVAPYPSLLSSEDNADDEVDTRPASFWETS
T2 sequence (P08581 25-1390 D1228N): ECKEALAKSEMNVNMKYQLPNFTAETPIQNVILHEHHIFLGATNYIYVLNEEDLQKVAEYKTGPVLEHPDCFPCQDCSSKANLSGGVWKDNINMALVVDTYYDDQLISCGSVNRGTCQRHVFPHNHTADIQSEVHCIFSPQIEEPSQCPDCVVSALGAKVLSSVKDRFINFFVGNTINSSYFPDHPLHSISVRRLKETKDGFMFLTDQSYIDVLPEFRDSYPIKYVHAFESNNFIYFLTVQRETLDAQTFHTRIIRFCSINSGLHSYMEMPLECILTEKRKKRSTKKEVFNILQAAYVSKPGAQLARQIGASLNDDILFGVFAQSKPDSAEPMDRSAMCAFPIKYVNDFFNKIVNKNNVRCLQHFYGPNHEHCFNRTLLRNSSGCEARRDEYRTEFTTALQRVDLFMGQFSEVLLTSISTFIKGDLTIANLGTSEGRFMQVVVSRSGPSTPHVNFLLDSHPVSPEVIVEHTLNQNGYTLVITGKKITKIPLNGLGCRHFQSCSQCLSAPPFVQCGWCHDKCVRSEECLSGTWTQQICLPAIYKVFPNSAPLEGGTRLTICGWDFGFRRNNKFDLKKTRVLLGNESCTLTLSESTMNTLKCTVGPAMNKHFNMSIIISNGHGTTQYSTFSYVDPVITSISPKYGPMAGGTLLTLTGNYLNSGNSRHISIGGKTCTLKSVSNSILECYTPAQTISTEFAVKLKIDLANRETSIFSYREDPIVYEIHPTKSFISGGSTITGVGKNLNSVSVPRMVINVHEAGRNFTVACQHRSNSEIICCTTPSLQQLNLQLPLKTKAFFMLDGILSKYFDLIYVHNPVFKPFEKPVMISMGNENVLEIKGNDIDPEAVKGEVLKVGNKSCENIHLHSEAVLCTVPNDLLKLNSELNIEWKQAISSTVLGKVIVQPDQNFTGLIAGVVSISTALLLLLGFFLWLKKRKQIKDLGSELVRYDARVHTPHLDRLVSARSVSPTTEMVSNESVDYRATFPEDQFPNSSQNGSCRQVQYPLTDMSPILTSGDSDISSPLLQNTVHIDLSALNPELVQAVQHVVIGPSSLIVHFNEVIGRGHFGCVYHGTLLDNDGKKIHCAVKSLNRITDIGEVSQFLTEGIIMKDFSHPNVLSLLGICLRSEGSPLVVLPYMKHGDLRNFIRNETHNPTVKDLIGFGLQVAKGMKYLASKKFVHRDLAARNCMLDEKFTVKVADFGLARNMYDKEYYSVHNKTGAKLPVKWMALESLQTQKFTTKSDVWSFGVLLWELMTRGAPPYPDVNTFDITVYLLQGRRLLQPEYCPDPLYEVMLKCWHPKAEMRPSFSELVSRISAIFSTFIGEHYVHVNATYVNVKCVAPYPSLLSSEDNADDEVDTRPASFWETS
T3 sequence (P08581 whole entry, change not shown, the tested form may be a part): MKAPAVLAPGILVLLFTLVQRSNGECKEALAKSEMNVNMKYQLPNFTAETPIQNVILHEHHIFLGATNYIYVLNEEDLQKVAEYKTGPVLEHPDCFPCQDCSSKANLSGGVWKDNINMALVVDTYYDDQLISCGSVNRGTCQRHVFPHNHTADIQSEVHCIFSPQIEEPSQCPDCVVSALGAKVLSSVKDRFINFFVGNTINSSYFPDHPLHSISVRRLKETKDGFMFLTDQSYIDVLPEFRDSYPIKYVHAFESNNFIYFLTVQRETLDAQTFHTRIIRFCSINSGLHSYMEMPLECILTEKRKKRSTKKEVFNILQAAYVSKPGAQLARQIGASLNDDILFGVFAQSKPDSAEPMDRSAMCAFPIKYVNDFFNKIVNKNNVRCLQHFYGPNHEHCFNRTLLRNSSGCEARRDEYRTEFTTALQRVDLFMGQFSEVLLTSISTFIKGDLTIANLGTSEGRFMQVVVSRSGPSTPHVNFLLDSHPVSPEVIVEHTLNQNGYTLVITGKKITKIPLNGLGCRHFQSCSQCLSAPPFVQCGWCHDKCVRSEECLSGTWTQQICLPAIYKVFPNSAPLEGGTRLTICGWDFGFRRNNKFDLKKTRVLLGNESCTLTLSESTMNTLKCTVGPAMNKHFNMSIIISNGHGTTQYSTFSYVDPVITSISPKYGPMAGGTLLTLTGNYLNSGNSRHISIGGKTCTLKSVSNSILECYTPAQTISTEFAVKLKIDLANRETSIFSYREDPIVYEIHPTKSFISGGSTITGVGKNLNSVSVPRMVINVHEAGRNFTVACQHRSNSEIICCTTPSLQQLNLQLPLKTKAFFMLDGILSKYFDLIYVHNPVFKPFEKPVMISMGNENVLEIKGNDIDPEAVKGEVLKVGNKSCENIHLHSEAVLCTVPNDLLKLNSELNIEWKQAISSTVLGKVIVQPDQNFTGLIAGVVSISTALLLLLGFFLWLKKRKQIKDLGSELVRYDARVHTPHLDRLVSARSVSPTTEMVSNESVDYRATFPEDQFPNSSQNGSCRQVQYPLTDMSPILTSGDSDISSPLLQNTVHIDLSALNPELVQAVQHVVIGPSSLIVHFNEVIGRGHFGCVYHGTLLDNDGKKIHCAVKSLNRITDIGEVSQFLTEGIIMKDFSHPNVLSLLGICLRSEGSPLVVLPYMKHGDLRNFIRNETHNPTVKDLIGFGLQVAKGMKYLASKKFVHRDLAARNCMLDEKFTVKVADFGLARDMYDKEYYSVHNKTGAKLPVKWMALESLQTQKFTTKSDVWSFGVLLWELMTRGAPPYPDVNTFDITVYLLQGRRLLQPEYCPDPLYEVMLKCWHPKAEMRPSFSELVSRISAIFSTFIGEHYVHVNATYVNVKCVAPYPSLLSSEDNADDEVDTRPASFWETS

Row | SMILES | pIC50 (MET) | pIC50 (MET D1228N) | pEC50 (Ba/F3-TPR-MET cells) | pEC50 [1]
1 | CNCCOc1cc2nccc(Oc3c(F)cc(NC(=O)c4cnccc4OC)c(F)c3F)c2cc1OC [Example 50, 4-methoxy-N-(2,3,5-trifluoro-4-((6-methoxy-7-(2-(methylamino)ethoxy)quinolin-4-yl)oxy)phenyl)pyridine-3-carboxamide] | ≥ 7.00 | ≥ 7.00 | ≥ 7.00 | ≥ 7.00
2 | CCOc1ccncc1C(=O)Nc1cc(F)c(Oc2ccnc3cc(OCCNC)c(OC)cc23)c(F)c1F [Example 51, 4-ethoxy-N-[2,3,5-trifluoro-4-({6-methoxy-7-[2-(methylamino)ethoxy]quinolin-4-yl}oxy)phenyl]pyridine-3-carboxamide] | ≥ 7.00 | ≥ 7.00 | 6.00 to 7.00 | ≥ 7.00
3 | CCCOc1ccncc1C(=O)Nc1cc(F)c(Oc2ccnc3cc(OCCNC)c(OC)cc23)cc1F [Example 52, N-(2,5-difluoro-4-((6-methoxy-7-(2-(methylamino)ethoxy)quinolin-4-yl)oxy)phenyl)-4-propoxypyridine-3-carboxamide] | ≥ 7.00 | ≥ 7.00 | 6.00 to 7.00 | 6.00 to 7.00
4 | COc1cc2c(Oc3c(F)cc(NC(=O)c4cnccc4OC4CC4)cc3F)ccnc2cc1OCCCN1CCOCC1 [Example 53, 4-cyclopropoxy-N-[3,5-difluoro-4-({6-methoxy-7-[3-(morpholin-4-yl)propoxy]quinolin-4-yl}oxy)phenyl]pyridine-3-carboxamide] | ≥ 7.00 | ≥ 7.00 | ≥ 7.00 | ≥ 7.00
5 | CNCCOc1cc2nccc(Oc3c(F)cc(NC(=O)c4cnccc4OC4CC4)cc3F)c2cc1OC [Example 54, 4-cyclopropoxy-N-[3,5-difluoro-4-({6-methoxy-7-[2-(methylamino)ethoxy]quinolin-4-yl}oxy)phenyl]pyridine-3-carboxamide] | ≥ 7.00 | ≥ 7.00 | ≥ 7.00 | ≥ 7.00
6 | CNCCOc1cc2nccc(Oc3c(F)cc(NC(=O)c4cnccc4OC4CCC4)cc3F)c2cc1OC [Example 55, 4-cyclobutoxy-N-(3,5-difluoro-4-((6-methoxy-7-(2-(methylamino)ethoxy)quinolin-4-yl)oxy)phenyl)pyridine-3-carboxamide] | ≥ 7.00 | ≥ 7.00 | 6.00 to 7.00 | ≥ 7.00
7 | CCCOc1ccncc1C(=O)Nc1cc(F)c(Oc2ccnc3cc(OCCNC)c(OC)cc23)c(F)c1 [Example 56, N-[3,5-difluoro-4-({6-methoxy-7-[2-(methylamino)ethoxy]quinolin-4-yl}oxy)phenyl]-4-propoxypyridine-3-carboxamide] | ≥ 7.00 | ≥ 7.00 | ≥ 7.00 | ≥ 7.00
8 | CNCCOc1cc2nccc(Oc3c(F)cc(NC(=O)c4cnccc4OC4CC(F)(F)C4)cc3F)c2cc1OC [Example 57, N-[3,5-difluoro-4-({6-methoxy-7-[2-(methylamino)ethoxy]quinolin-4-yl}oxy)phenyl]-4-(3,3-difluorocyclobutoxy)pyridine-3-carboxamide] | ≥ 7.00 | ≥ 7.00 | 6.00 to 7.00 | 6.00 to 7.00
9 | CNCCOc1cc2nccc(Oc3c(F)cc(NC(=O)c4cnccc4OCCCF)cc3F)c2cc1OC [Example 58, N-[3,5-difluoro-4-({6-methoxy-7-[2-(methylamino)ethoxy]quinolin-4-yl}oxy)phenyl]-4-(3-fluoropropoxy)pyridine-3-carboxamide] | ≥ 7.00 | ≥ 7.00 | ≥ 7.00 | ≥ 7.00
10 | CNCCOc1cc2nccc(Oc3c(F)cc(NC(=O)c4cnccc4OC(C)C)cc3F)c2cc1OC [Example 59, N-[3,5-difluoro-4-({6-methoxy-7-[2-(methylamino)ethoxy]quinolin-4-yl}oxy)phenyl]-4-isopropoxypyridine-3-carboxamide] | ≥ 7.00 | ≥ 7.00 | ≥ 7.00 | ≥ 7.00

Continued, in another order:

Row | pIC50 (MET) | pIC50 (MET D1228N) | SMILES | pEC50 (Ba/F3-TPR-MET cells) | pEC50 [1]
11 | ≥ 7.00 | ≥ 7.00 | COc1ccncc1C(=O)Nc1cc(F)c(Oc2ccnc3cc(OCC(C)(C)O)ccc23)c(F)c1 [Example 40, N-(3,5-difluoro-4-{[7-(2-hydroxy-2-methylpropoxy)quinolin-4-yl]oxy}phenyl)-4-methoxypyridine-3-carboxamide] | 6.00 to 7.00 | 6.00 to 7.00
12 | ≥ 7.00 | ≥ 7.00 | COc1ccncc1C(=O)Nc1cc(F)c(Oc2ccnc3cc(OCCO)ccc23)c(F)c1 [Example 41, N-(3,5-difluoro-4-((7-(2-hydroxyethoxy)quinolin-4-yl)oxy)phenyl)-4-methoxypyridine-3-carboxamide] | 6.00 to 7.00 | ≥ 7.00
13 | ≥ 7.00 | ≥ 7.00 | COCCOc1ccc2c(Oc3c(F)cc(NC(=O)c4cnccc4OC)cc3F)ccnc2c1 [Example 42, N-(3,5-difluoro-4-{[7-(2-methoxyethoxy)quinolin-4-yl]oxy}phenyl)-4-methoxypyridine-3-carboxamide] | 6.00 to 7.00 | ≥ 7.00
14 | ≥ 7.00 | ≥ 7.00 | COCCOc1cc2nccc(Oc3c(F)cc(NC(=O)c4cnccc4OC)cc3F)c2cc1OCCOC [Example 43, N-(4-((6,7-bis(2-methoxyethoxy)quinolin-4-yl)oxy)-3,5-difluorophenyl)-4-methoxypyridine-3-carboxamide] | ≥ 7.00 | ≥ 7.00
15 | ≥ 7.00 | ≥ 7.00 | CNCCOc1cc2nccc(Oc3c(F)cc(NC(=O)c4cnc(F)cc4OC)cc3F)c2cc1OC [Example 44, N-(3,5-difluoro-4-((6-methoxy-7-(2-(methylamino)ethoxy)quinolin-4-yl)oxy)phenyl)-6-fluoro-4-methoxypyridine-3-carboxamide] | 6.00 to 7.00 | 6.00 to 7.00
16 | ≥ 7.00 | ≥ 7.00 | CNCCOc1cc2nccc(Oc3c(F)cc(NC(=O)c4cnc(C)cc4OC)cc3F)c2cc1OC [Example 45, N-(3,5-difluoro-4-((6-methoxy-7-(2-(methylamino)ethoxy)quinolin-4-yl)oxy)phenyl)-4-methoxy-6-methylpyridine-3-carboxamide] | 6.00 to 7.00 | 6.00 to 7.00
17 | ≥ 7.00 | ≥ 7.00 | CNCCOc1cc2nccc(Oc3c(F)cc(NC(=O)c4cnc(NCCOC)cc4OC)cc3F)c2cc1OC [Example 46, N-(3,5-difluoro-4-((6-methoxy-7-(2-(methylamino)ethoxy)quinolin-4-yl)oxy)phenyl)-4-methoxy-6-((2-methoxyethyl)amino)pyridine-3-carboxamide] | ≥ 7.00 | ≥ 7.00
18 | ≥ 7.00 | ≥ 7.00 | CNCCOc1cc2nccc(Oc3c(F)cc(NC(=O)c4cnccc4OC(F)F)cc3F)c2cc1OC [Example 47, N-(3,5-difluoro-4-((6-methoxy-7-(2-(methylamino)ethoxy)quinolin-4-yl)oxy)phenyl)-4-(difluoromethoxy)pyridine-3-carboxamide] | 6.00 to 7.00 | 6.00 to 7.00
19 | ≥ 7.00 | ≥ 7.00 | CCc1ccncc1C(=O)Nc1cc(F)c(Oc2ccnc3cc(OCCNC)c(OC)cc23)c(F)c1 [Example 49, N-(3,5-difluoro-4-((6-methoxy-7-(2-(methylamino)ethoxy)quinolin-4-yl)oxy)phenyl)-4-ethylpyridine-3-carboxamide] | 6.00 to 7.00 | 6.00 to 7.00
